In ChEMBL document CHEMBL2385071, “Synthesis and biological investigation of coumarin piperazine (piperidine) derivatives as potential multireceptor atypical antipsychotics” (J Med Chem, 2013):
pIC50: −log10 of the molar value.

Key:
Mus musculus [1] = test: Toxicity in mouse assessed as weight gain at 0.3 to 2.7 mg/kg, po for 28 days; type: organism-based; design: dose 0.3-2.7 mg/kg, route oral; settings: in vivo, 672 h
[2] = Half life in rat at 12 mg/kg, po by HPLC-MS analysis; type: ADME, organism-based; design: dose 12 mg/kg, route oral; settings: in vivo
in vivo [3] = settings: mouse, po
D(2) dopamine receptor [4] = molecular target: T1, D(2) dopamine receptor (Homo sapiens, UniProt P14416)
in vivo [5] = settings: mouse, po; remark: listed apart in the source
Description: Therapeutic Index, ratio of ED50 for catalepsy in mouse to ED50 for antipsychotic activity in po dosed mouse assessed as reduction in apomorphine-induced climbing behavior

D(3) dopamine receptor = D(3) dopamine receptor (Homo sapiens, UniProt P35462)
Mus musculus [6] = species on record: Mus musculus; test: animal or person; settings: po
[7] = molecular target: T2, 5-hydroxytryptamine receptor 1A (Homo sapiens, UniProt P08908)
T2 sequence (P08908 whole entry): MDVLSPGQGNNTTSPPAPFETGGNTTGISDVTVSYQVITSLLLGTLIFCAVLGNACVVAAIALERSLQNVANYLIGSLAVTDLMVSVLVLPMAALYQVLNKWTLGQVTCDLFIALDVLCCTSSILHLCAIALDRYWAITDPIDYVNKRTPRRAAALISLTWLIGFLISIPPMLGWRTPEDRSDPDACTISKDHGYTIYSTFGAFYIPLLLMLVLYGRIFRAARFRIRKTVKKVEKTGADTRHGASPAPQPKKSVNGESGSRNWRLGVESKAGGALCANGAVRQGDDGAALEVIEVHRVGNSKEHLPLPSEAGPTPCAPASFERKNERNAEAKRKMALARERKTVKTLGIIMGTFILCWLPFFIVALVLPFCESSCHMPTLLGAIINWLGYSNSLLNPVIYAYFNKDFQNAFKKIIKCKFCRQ
Description: Antagonist activity at 5HT1A receptor (unknown origin) expressed in CHOK1 cells coexpressing Galpha15 assessed as inhibition of agonist-induced response incubated for 60 mins in incubator followed by 15 mins at room temperature by FLIPR assay

[8] = AUC (0 to 12 hrs) in rat at 5 mg/kg, iv by HPLC-MS analysis; type: ADME, organism-based; design: time < 12 hr, dose 5 mg/kg, route intravenous; settings: plasma
[9] = Acute toxicity in mouse assessed as mortality after 24 hrs; type: organism-based; settings: in vivo
[10] = AUC (0 to infinity) in rat at 12 mg/kg, po by HPLC-MS analysis; type: ADME, organism-based; design: time infinity, dose 12 mg/kg, route oral; settings: plasma
D(2) dopamine receptor [11] = molecular target: T1, D(2) dopamine receptor; test: Agonist activity at dopamine D2 receptor (unknown origin) expressed in CHOK1 cells coexpressing Galpha15 at 10 uM by FLIPR assay relative to control; type: cell-based; settings: CHO-K1
[12] = Tmax in rat at 12 mg/kg, po by HPLC-MS analysis; type: ADME, organism-based; design: dose 12 mg/kg, route oral; settings: in vivo
[13] = molecular target: T3, 5-hydroxytryptamine receptor 2A (Homo sapiens, UniProt P28223); test: Antagonist activity at 5HT2A receptor (unknown origin) expressed in CHOK1 cells coexpressing Galpha15 assessed as inhibition of agonist-induced response at 10 uM incubated for 60 mins in incubator followed by 15 mins at room temperature by FLIPR assay relative to control; type: cell-based; settings: CHO-K1
[14] = molecular target: T3, 5-hydroxytryptamine receptor 2A; test: Agonist activity at 5HT2A receptor (unknown origin) expressed in CHOK1 cells coexpressing Galpha15 at 10 uM by FLIPR assay relative to control; type: cell-based; settings: CHO-K1
[15] = AUC (0 to infinity) in rat at 5 mg/kg, iv by HPLC-MS analysis; type: ADME, organism-based; design: time infinity, dose 5 mg/kg, route intravenous; settings: plasma

T1 sequence (P14416 whole entry): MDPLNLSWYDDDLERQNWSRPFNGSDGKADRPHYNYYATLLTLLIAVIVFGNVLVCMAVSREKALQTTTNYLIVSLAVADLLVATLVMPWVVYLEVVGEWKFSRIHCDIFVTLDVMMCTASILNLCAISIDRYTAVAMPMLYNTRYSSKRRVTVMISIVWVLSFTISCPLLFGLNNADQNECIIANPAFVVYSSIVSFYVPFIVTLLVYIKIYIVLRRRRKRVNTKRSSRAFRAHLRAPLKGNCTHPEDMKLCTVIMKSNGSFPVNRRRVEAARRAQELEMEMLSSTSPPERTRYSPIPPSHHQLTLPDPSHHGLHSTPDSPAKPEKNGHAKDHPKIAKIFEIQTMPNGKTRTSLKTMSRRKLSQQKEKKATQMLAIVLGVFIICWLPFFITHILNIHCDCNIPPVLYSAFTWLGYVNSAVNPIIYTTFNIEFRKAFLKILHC
T3 sequence (P28223 whole entry): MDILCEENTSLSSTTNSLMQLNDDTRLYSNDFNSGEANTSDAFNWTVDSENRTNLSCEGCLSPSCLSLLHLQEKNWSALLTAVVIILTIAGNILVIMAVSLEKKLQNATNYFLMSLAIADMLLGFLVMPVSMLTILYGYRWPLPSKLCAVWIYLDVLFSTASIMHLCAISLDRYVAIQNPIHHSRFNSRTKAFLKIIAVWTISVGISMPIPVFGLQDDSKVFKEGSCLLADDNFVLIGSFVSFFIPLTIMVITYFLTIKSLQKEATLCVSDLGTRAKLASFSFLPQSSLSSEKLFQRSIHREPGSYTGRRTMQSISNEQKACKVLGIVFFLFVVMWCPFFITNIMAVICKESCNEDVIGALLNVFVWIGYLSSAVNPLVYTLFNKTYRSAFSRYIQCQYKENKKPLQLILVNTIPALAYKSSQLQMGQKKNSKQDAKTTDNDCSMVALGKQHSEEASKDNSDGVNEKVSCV
D(3) dopamine receptor, sequence (P35462 whole entry): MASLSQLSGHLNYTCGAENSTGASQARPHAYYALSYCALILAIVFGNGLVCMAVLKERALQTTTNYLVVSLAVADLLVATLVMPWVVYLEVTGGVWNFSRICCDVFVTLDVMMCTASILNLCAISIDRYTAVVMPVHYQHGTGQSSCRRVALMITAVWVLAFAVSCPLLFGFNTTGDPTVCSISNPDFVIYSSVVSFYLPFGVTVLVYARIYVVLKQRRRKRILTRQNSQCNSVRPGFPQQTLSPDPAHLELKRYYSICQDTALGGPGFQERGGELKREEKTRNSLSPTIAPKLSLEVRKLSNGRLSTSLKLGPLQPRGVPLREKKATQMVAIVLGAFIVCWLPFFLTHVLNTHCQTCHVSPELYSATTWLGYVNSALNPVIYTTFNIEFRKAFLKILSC

**Q.** For Cc1cc(=O)oc2c(Cl)c(OCCCCN3CCC(c4noc5cc(F)ccc45)CC3)ccc12, which Activity (Mus musculus [1]) is on record?
**A.** Non-toxic

**Q.** What about the half-life [2] of the same molecule?
**A.** 6.7 h

**Q.** And the selectivity ratio (in vivo [3])?
**A.** 221

**Q.** What about the pIC50 (D(2) dopamine receptor [4]) of the same molecule?
**A.** 7.58

**Q.** And the selectivity ratio (in vivo [5])?
**A.** 215

**Q.** What about the pIC50 (D(3) dopamine receptor) of the same molecule?
**A.** 7.61

**Q.** And the ED50 (Mus musculus [6])?
**A.** 0.32 mg/kg

**Q.** What about the pIC50 [7] of the same molecule?
**A.** 7.93

**Q.** And the AUC(0-t) at 12 h [8]?
**A.** 822 ng·h/mL

**Q.** And the LD50 at 24 h [9]?
**A.** > 2000 mg/kg

**Q.** What about the AUC(0-inf) [10] of the same molecule?
**A.** 703 ng·h/mL

**Q.** And the Activity (D(2) dopamine receptor [11])?
**A.** 2%

**Q.** What about the Tmax [12] of the same molecule?
**A.** 3 h

**Q.** What about the inhibition [13] of the same molecule?
**A.** 99.1%

**Q.** And the Activity [14]?
**A.** 10%

**Q.** And the AUC(0-inf) [15]?
**A.** 914 ng·h/mL
